The values that follow come from paper PMC5241873, “The clinically approved antiviral drug sofosbuvir inhibits Zika virus replication” (Scientific Reports, 2017).

What is called IC50 is the concentration that gives 50% inhibition.

Bounds are passed on as bounds.

In test [1] the test system is T1, ZIKV RNA polymerase (ZVRP), partially purified from ZIKV-infected BHK-21 cells.
T1 construct: gene NS5; mature NS5 from the genome polyprotein; native, partially purified from infected BHK-21 cells (100,000 x g supernatant, DEAE- and phospho-cellulose)
Put plainly: RdRp assay, labelled UTP incorporation on ZIKV RNA, ALPHA detection. The class given is biochemical, Zika virus. The note with it: 0.4 mM each ATP, GTP, CTP and labelled UTP; 3 mM MgCl2; pH 7.3; 30 °C; 1 h; partially purified enzyme.

Test [2] deals with T2, recombinant ZVRP (C-terminal portion).
T2 construct: gene NS5; pET-41b+ BamHI/SacI, N-terminal GST tag, E. coli BL21; B3U3M3 is printed for the 3D model only
Described as above. Format: biochemical, Zika virus. The note with it: 0.4 mM each ATP, GTP, CTP and labelled UTP; 3 mM MgCl2; pH 7.3; 30 °C; 1 h.

For `Cc1cn([C@H]2C[C@H](N=[N+]=[N-])[C@@H](COP(=O)(O)OP(=O)(O)OP(=O)(O)O)O2)c(=O)[nH]c1=O` [AZT-TP, AZT triphosphate], the IC50 in test [1] and in test [2] was over 10000 nM each time.

Regarding `NC(=O)c1ncn([C@@H]2O[C@H](COP(=O)(O)OP(=O)(O)OP(=O)(O)O)[C@@H](O)[C@H]2O)n1` [RTP, ribavirin triphosphate], the IC50 in test [1] stood at 210 ± 60 nM; in test [2], 620 ± 50 nM.

As for `C[C@@]1(F)[C@H](O)[C@@H](COP(=O)(O)OP(=O)(O)OP(=O)(O)O)O[C@H]1n1ccc(=O)[nH]c1=O` [STP, β-d-2′-deoxy-2′-α-fluoro-2′-β-C-methyluridine triphosphate], the IC50 came out at 380 ± 30 nM in test [1] and 610 ± 80 nM in test [2].
